According to patent US20210316013A1, “HAEMATOPOIETIC STEM CELL-GENE THERAPY FOR WISKOTT-ALDRICH SYNDROME” (priority 2018, published 2021):

Test system: Jurkat cells
Test: Titration of 6TG dosing window, Jurkat cell viability
Assay type: cell-based
Conditions: 6TG 0.01-100 μM, viability after 2 days, cell counter TC20
Procedure: Jurkat cells were incubated in a 96-well plate with different concentrations of 6TG (0.01-100 μM). After 2 days, viability of the cells was measured with cell counter TC20. Optimal 6TG dose for Jurkat cells was estimated to be approx. 504. A nominal concentration of 2.5 μM 6TG was elected for subsequent chemo-selection experiments. The results are illustrated in FIG. 20A.

## Nc1nc2nc[nH]c2c(=S)[nH]1 [Candidate 6TG, 6-thioguanine]
  Optimal 6TG dose for Jurkat cells: approx. 504
